In ChEMBL document CHEMBL3792297, “Studies on phenothiazines: New microtubule-interacting compounds with phenothiazine A-ring as potent antineoplastic agents” (Bioorg Med Chem, 2016):

Experiments:
Format in all cases: functional
[1] = Growth inhibition of human HCT15 cells at 10 uM after 48 hrs by SRB assay relative to control; conditions: HCT-15, 48 h, read-out: GI
[2] = test system: KM12; assay: Growth inhibition of human KM12 cells at 10 uM after 48 hrs by SRB assay relative to control; conditions: KM12, 48 h, read-out: GI
[3] = Growth inhibition of human UACC62 cells at 10 uM after 48 hrs by SRB assay relative to control; conditions: UACC-62, 48 h, read-out: GI
[4] = test system: SK-MEL-5; assay: Growth inhibition of human SK-MEL-5 cells at 10 uM after 48 hrs by SRB assay relative to control; conditions: SK-MEL-5, 48 h, read-out: GI
[5] = Growth inhibition of human OVCAR3 cells at 10 uM after 48 hrs by SRB assay relative to control; conditions: OVCAR-3, 48 h, read-out: GI
[6] = Growth inhibition of human OVCAR4 cells at 10 uM after 48 hrs by SRB assay relative to control; conditions: OVCAR-4, 48 h, read-out: GI
[7] = Growth inhibition of human OVCAR8 cells at 10 uM after 48 hrs by SRB assay relative to control; conditions: OVCAR-8, 48 h, read-out: GI
[8] = Growth inhibition of human NCI-ADR-RES cells at 10 uM after 48 hrs by SRB assay relative to control; conditions: read-out: GI
[9] = Growth inhibition of human SKOV3 cells at 10 uM after 48 hrs by SRB assay relative to control; conditions: SK-OV-3, 48 h, read-out: GI
[10] = Growth inhibition of human PC3 cells at 10 uM after 48 hrs by SRB assay relative to control; conditions: PC-3, 48 h, read-out: GI
[11] = Growth inhibition of human SF268 cells at 10 uM after 48 hrs by SRB assay relative to control; conditions: SF-268, 48 h, read-out: GI
[12] = Growth inhibition of human SF295 cells at 10 uM after 48 hrs by SRB assay relative to control; conditions: SF-295, 48 h, read-out: GI
[13] = Growth inhibition of human SF539 cells at 10 uM after 48 hrs by SRB assay relative to control; conditions: SF-539, 48 h, read-out: GI
[14] = Growth inhibition of human SNB75 cells at 10 uM after 48 hrs by SRB assay relative to control; conditions: SNB-75, 48 h, read-out: GI
[15] = Growth inhibition of human Hs 578T cells at 10 uM after 48 hrs by SRB assay relative to control; conditions: read-out: GI
[16] = Growth inhibition of human BT549 cells at 10 uM after 48 hrs by SRB assay relative to control; conditions: BT-549, 48 h, read-out: GI
[17] = Growth inhibition of human MOLT4 cells after 48 hrs by SRB assay; conditions: MOLT-4, 48 h
[18] = test system: SR; assay: Growth inhibition of human SR cells after 48 hrs by SRB assay
[19] = test system: NCI-H460; assay: Growth inhibition of human NCI-H460 cells after 48 hrs by SRB assay; conditions: NCI-H460, 48 h
[20] = Growth inhibition of human COLO205 cells after 48 hrs by SRB assay; conditions: COLO 205, 48 h
[21] = Growth inhibition of human HCT116 cells after 48 hrs by SRB assay; conditions: HCT-116, 48 h
[22] = Growth inhibition of human HCT15 cells after 48 hrs by SRB assay; conditions: HCT-15, 48 h
[23] = test system: HT-29; assay: Growth inhibition of human HT-29 cells after 48 hrs by SRB assay; conditions: HT-29, 48 h
[24] = test system: KM12; assay: Growth inhibition of human KM12 cells after 48 hrs by SRB assay; conditions: KM12, 48 h
[25] = test system: M14; assay: Growth inhibition of human M14 cells after 48 hrs by SRB assay; conditions: M14, 48 h
[26] = test system: MDA-MB-435; assay: Growth inhibition of human MDA-MB-435 cells after 48 hrs by SRB assay; conditions: MDA-MB-435, 48 h
[27] = test system: SK-MEL-2; assay: Growth inhibition of human SK-MEL-2 cells after 48 hrs by SRB assay; conditions: SK-MEL-2, 48 h
[28] = test system: SK-MEL-28; assay: Growth inhibition of human SK-MEL-28 cells after 48 hrs by SRB assay; conditions: SK-MEL-28, 48 h
[29] = test system: SK-MEL-5; assay: Growth inhibition of human SK-MEL-5 cells after 48 hrs by SRB assay; conditions: SK-MEL-5, 48 h
[30] = Growth inhibition of human OVCAR3 cells after 48 hrs by SRB assay; conditions: OVCAR-3, 48 h
[31] = Growth inhibition of human OVCAR8 cells after 48 hrs by SRB assay; conditions: OVCAR-8, 48 h
[32] = Growth inhibition of human IGROV1 cells after 48 hrs by SRB assay; conditions: IGROV-1, 48 h
[33] = test system: A498; assay: Growth inhibition of human A498 cells after 48 hrs by SRB assay; conditions: A498, 48 h
[34] = Growth inhibition of human Caki1 cells after 48 hrs by SRB assay; conditions: CAKI-1, 48 h
[35] = Growth inhibition of human RXF393 cells after 48 hrs by SRB assay; conditions: RXF 393, 48 h
[36] = Growth inhibition of human SF295 cells after 48 hrs by SRB assay; conditions: SF-295, 48 h
[37] = test system: MCF7; assay: Growth inhibition of human MCF7 cells after 48 hrs by SRB assay; conditions: MCF7, 48 h
[38] = Growth inhibition of human Hs 578T cells after 48 hrs by SRB assay
[39] = Growth inhibition of human BT549 cells after 48 hrs by SRB assay; conditions: BT-549, 48 h
[40] = test system: MDA-MB-468; assay: Growth inhibition of human MDA-MB-468 cells after 48 hrs by SRB assay; conditions: MDA-MB-468, 48 h
[41] = test system: CCRF-CEM; assay: Growth inhibition of human CCRF-CEM cells at 10 uM after 48 hrs by SRB assay relative to control; conditions: read-out: GI
[42] = Growth inhibition of human MOLT4 cells at 10 uM after 48 hrs by SRB assay relative to control; conditions: MOLT-4, 48 h, read-out: GI
[43] = test system: SR; assay: Growth inhibition of human SR cells at 10 uM after 48 hrs by SRB assay relative to control; conditions: read-out: GI
[44] = test system: EKVX; assay: Growth inhibition of human EKVX cells at 10 uM after 48 hrs by SRB assay relative to control; conditions: read-out: GI
[45] = test system: NCI-H226; assay: Growth inhibition of human NCI-H226 cells at 10 uM after 48 hrs by SRB assay relative to control; conditions: NCI-H226, 48 h, read-out: GI
[46] = test system: NCI-H23; assay: Growth inhibition of human NCI-H23 cells at 10 uM after 48 hrs by SRB assay relative to control; conditions: NCI-H23, 48 h, read-out: GI

Work on COc1ccc(C(=O)N2c3ccccc3Sc3ccccc32)c(C(F)(F)F)c1 yielded an inhibition of growth at 10 µM [1] of 82%, an inhibition of growth at 10 µM [2] of 82% and an inhibition of growth at 10 µM [3] of 68%. It also gave an inhibition of growth at 10 µM [4] of 95%, an inhibition of growth at 10 µM [5] of 100% and an inhibition of growth at 10 µM [6] of 53%. The inhibition of growth at 10 µM [7] was 85%, the inhibition of growth at 10 µM [8] was 97% and the inhibition of growth at 10 µM [9] was 66%. It also gave an inhibition of growth at 10 µM [10] of 85%, an inhibition of growth at 10 µM [11] of 65% and an inhibition of growth at 10 µM [12] of 95%. It also gave an inhibition of growth at 10 µM [13] of 100%, an inhibition of growth at 10 µM [14] of 71% and an inhibition of growth at 10 µM [15] of 76%. The inhibition of growth at 10 µM [16] was 89%, the GI50 [17] was 406 nM and the GI50 [18] was 312 nM. The GI50 [19] was 383 nM, the GI50 [20] was 319 nM and the GI50 [21] was 505 nM. It also gave a GI50 [22] of 405 nM, a GI50 [23] of 362 nM and a GI50 [24] of 413 nM. It also gave a GI50 [25] of 343 nM, a GI50 [26] of 176 nM and a GI50 [27] of 677 nM. The GI50 [28] was 9170 nM, the GI50 [29] was 692 nM and the GI50 [30] was 332 nM. It also gave a GI50 [31] of 592 nM, a GI50 [32] of 2200 nM and a GI50 [33] of 282 nM. It also gave a GI50 [34] of 692 nM, a GI50 [35] of 362 nM and a GI50 [36] of 372 nM. For the same compound, the GI50 [37] was 411 nM, the GI50 [38] was 472 nM and the GI50 [39] was 892 nM. For the same compound, the GI50 [40] was 364 nM, the inhibition of growth at 10 µM [41] was 78% and the inhibition of growth at 10 µM [42] was 85%. The inhibition of growth at 10 µM [43] was 84%, the inhibition of growth at 10 µM [44] was 54% and the inhibition of growth at 10 µM [45] was 87%. The inhibition of growth at 10 µM [46] was 76%.
